This passage reports IC50 results from patent US20110224231A1, “Novel Lactams as Beta Secretase Inhibitors” (Pfizer Inc., priority 2008, published 2011).

In the experiment the target is T1, soluble human BACE (Homo sapiens, UniProt P56817).
T1 construct: cells secreting human recombinant soluble BACE; made in house; conditioned medium
T1 sequence (P56817 46-457 limits assumed): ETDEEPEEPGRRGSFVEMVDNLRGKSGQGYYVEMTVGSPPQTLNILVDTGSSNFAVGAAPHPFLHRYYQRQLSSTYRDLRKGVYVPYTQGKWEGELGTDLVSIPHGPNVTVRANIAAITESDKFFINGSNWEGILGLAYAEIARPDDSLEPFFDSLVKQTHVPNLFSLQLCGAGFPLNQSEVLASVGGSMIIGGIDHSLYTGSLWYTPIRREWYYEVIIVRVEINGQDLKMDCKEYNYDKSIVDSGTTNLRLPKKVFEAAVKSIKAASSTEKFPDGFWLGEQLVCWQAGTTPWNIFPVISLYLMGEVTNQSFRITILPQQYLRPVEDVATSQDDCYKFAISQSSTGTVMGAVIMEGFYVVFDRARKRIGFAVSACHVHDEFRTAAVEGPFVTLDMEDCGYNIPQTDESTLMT
Nature of the experiment: BACE activity Cell Free Assay (ELISA of cleaved synthetic APP substrate). It counts as biochemical. As to the method:
A synthetic APP substrate that can be cleaved by beta˜secretase and having N-terminal biotin is used to assay beta-secretase activity in the presence or absence of the inhibitory compounds. […] The substrate and test compounds are added to 384 well polypropylene plates. The reaction is initiated by the addition of soluble BACE enzyme to a final volume of 12.5 μL per well. The final assay conditions are: 0.001˜300 μM compound inhibitor, 0.05M sodium acetate (pH 4.5), 3 μM substrate, soluble human BACE, and 2% DMSO. Concentrated conditioned media from cells secreting human recombinant soluble BACE was titrated to provide a source of BACE enzyme. The cell media can be used as either a crude BACE prep or BACE can be purified using any number of techniques, including immobilized BACE inhibitor purification columns. The assay mixture is incubated for 1 hour at 37° C., and the reaction is quenched by the addition of an equal volume of 0.1M Tris, pH 8. Half of the quenched mix is incubated on clear streptavidin coated 384 well polystyrene plates for 1 hour. An ELISA is then performed using an in˜house antibody that specifically recognizes the new C˜terminus created after cleavage by BACE. […] (These polyclonal antibodies were raised in rabbits by immunizing with antigen comprised of six amino acid residues present at the carboxy terminus of the wild-type soluble APPbeta sequence (NH2-ISEVKM-COOH) or seven amino acid residues present at the carboxy terminus of the Swedish mutation at the beta cleavage site (NH2-EISEVNL˜COOH) conjugated to keyhole limpet hemacyanin by methods known to those skilled in the art.) A secondary anti˜species Horseradish Peroxidase (HRP) conjugated antibody is then utilized. The readout, following assay development with TMB substrate and quenching with 0.09M sulfuric acid, is absorbance at 450 nm.
On the technique in general: ELISA stands for enzyme-linked immunosorbent assay.
`CC1CC2(CCC(=O)N2c2cccc(F)c2)CCN1Cc1ccc2[nH]ccc2c1` (racemic) [Example 40, Racemic (5R,7S),(5S,7R)-1-(3-fluorophenyl)-8-(1H-indol-5-ylmethyl)-7-methyl-1,8-diazaspiro[4.5]decan-2-one]: the IC50 (commonly the concentration that inhibits the measured activity by half) lay in the range of 100 to 300 µM.
Then `CC1CC2(CCC(=O)N2c2cccc(F)c2)CCN1Cc1ccc(O)c(C#N)c1` (racemic) [Example 41, Racemic (5R,7S),(5S,7R)-1(3-fluorophenyl)-7-methyl-2-oxo-1,8-diazaspiro[4.5]dec-8-yl]methyl}-2-hydroxybenzonitrile], with 10 to 100 µM.
Then `COc1cc(CN2CCC3(CCC(=O)N3c3cccc(F)c3)CC2C)ccc1O` (racemic) [Example 42, Racemic (5R,7S),(5S,7R)-1-(3-fluorophenyl)-8-(4-hydroxy-3-methoxybenzyl)-7-methyl-1,8-diazaspiro[4.5]decan-2-one], with 10 to 100 µM; and `COc1ccc(F)c(CN2CCC3(CCC(=O)N3c3cccc(F)c3)CC2C)c1` (racemic) [Example 43, Racemic (5R,7S),(5S,7R)-8-(2-fluoro-5-methoxybenzyl)-1-(3-fluorophenyl)-7-methyl-1,8-diazaspiro[4.5]decan-2-one], with 100 to 300 µM.
Then `CC1CC2(CCC(=O)N2c2cccc(F)c2)CCN1Cc1ccc(O)c(Cl)c1` (racemic) [Example 44, Racemic (5R,7S),(5S,7R)-8-(3-chloro-4-hydroxybenzyl)-1-(3-fluorophenyl)-7-methyl-1,8-diazaspiro[4.5]decan-2-one], with 10 to 100 µM; and `CC(C)Oc1cccc(CN2CC[C@]3(CCC(=O)N3c3cccc(F)c3)C[C@@H]2C)c1` (racemic) [Example 45, Racemic (5R,7S),(5S,7R)-1-(3-fluorophenyl)-8-(3-isopropoxybenzyl)-7-methyl-1,8-diazaspiro[4.5]decan-2-one], with 10 to 100 µM; and `CCCOc1cccc(CN2CCC3(CCC(=O)N3c3cccc(F)c3)CC2C)c1` (racemic) [Example 46, Racemic (5R,7S),(5S,7R)-1-(3-fluorophenyl)-7-methyl-8-(3-propoxybenzyl)-1,8-diazaspiro[4.5]decan-2-one], with 10 to 100 µM.
In turn, `CCCCOc1cccc(CN2CCC3(CCC(=O)N3c3cccc(F)c3)CC2C)c1` (racemic) [Example 47, Racemic (5R,7S),(5S,7R)-8-(3-butoxybenzyl)-1-(3-fluorophenyl)-7-methyl-1,8-diazaspiro[4.5]decan-2-one] yielded an IC50 of 100 to 300 µM.
Then `CC(C)COc1cccc(CN2CCC3(CCC(=O)N3c3cccc(F)c3)CC2C)c1` (racemic) [Example 48, Racemic (5R,7S),(5S,7R)-1-(3-fluorophenyl)-8-(3-isobutoxybenzyl)-7-methyl-1,8-diazaspiro[4.5]decan-2-one], with 100 to 300 µM; and `CC1CC2(CCC(=O)N2c2cccc(F)c2)CCN1Cc1cccc(-c2cccnc2)c1` (racemic) [Example 49, Racemic (5R,7S),(5S,7R)-1-(3-fluorophenyl)-7-methyl-8-(3-pyridin-3-ylbenzyl)-1,8-diazaspiro[4.5]decan-2-one], with 100 to 300 µM; and `CC1CC2(CCC(=O)N2c2cccc(F)c2)CCN1Cc1cccc(OC2CCCC2)c1` (racemic) [Example 50, Racemic (5R,7S),(5S,7R)-8-[3-(cyclopentyloxy)benzyl]-1-(3-fluorophenyl)-7-methyl-1,8-diazaspiro[4.5]decan-2-one], with 100 to 300 µM.
Then `Cc1ccncc1-c1cccc(CN2CCC3(CCC(=O)N3c3cccc(F)c3)CC2C)c1` (racemic) [Example 51, Racemic (5R,7S),(5S,7R)-1-(3-fluorophenyl)-7-methyl-8-[3-(4-methylpyridin-3-yl)benzyl]-1,8-diazaspiro[4.5]decan-2-one], with 10 to 100 µM; and `CC1CC2(CCC(=O)N2c2cccc(F)c2)CCN1Cc1cccc(Oc2ccccc2)c1` (racemic) [Example 52, Racemic (5R,7S),(5S,7R)-1-(3-fluorophenyl)-7-methyl-8-(3-phenoxybenzyl)-1,8-diazaspiro[4.5]decan-2-one], with 10 to 100 µM; and `CC1CC2(CCC(=O)N2c2cccc(F)c2)CCN1Cc1cc(Br)ccc1F` (racemic) [Example 53, Racemic (5R,7S),(5S,7R)-8-(5-bromo-2-fluorobenzyl)-1-(3-fluorophenyl)-7-methyl-1,8-diazaspiro[4.5]decan-2-one], with 100 to 300 µM.
`CC1CC2(CCC(=O)N2c2cccc(F)c2)CCN1Cc1nc(-c2ccc(C#N)cc2)cs1` (racemic) [Example 54, Racemic 4-(2-{[(5R,7S),(5S,7R)-1-(3-fluorophenyl)-7-methyl-2-oxo-1,8-diazaspiro[4.5]dec-8-yl]methyl}-1,3-thiazol-4-yl)benzonitrile] displayed an IC50 of 100 to 300 µM.
Then `CC1CC2(CCC(=O)N2c2cccc(F)c2)CCN1Cc1cccc(Oc2ccc(Cl)cc2)c1` (racemic) [Example 55, Racemic (5R,7S),(5S,7R)-8-[3-(4-chlorophenoxy)benzyl]-1-(3-fluorophenyl)-7-methyl-1,8-diazaspiro[4.5]decan-2-one], with 10 to 100 µM.
Then `CC(=O)Nc1ccc(CN2CCC3(C=CC(=O)N3c3cccc(F)c3)CC2C)cc1` (racemic) [Example 59, Racemic N-(4-{[(5R,7S),(5S,7R)-1-(3-fluorophenyl)-7-methyl-2-oxo-1,8-diazaspiro[4.5]-3-en 8-yl]methyl}phenyl)acetamide], with 1 to 10 µM.
For `CC1CC2(C=CC(=O)N2c2cccc(F)c2)CCN1Cc1ccnn1CC(F)(F)F` (racemic) [Example 60, Racemic (5R,7S),(5S,7R)-1-(3-fluorophenyl)-7-methyl-8-{[1-(2,2,2-trifluoroethyl)-1H-pyrazol-5-yl]methyl}-1,8-diazaspiro[4.5]dec-3-en-2-one], the 50% inhibitory concentration (IC50) was in the range of 10 to 100 µM.
Take `CC1CC2(C=CC(=O)N2c2cccc(F)c2)CCN1Cc1c[nH]c2ccc(C#N)cc12` (racemic) [Example 61, Racemic 3-{[(5R,7S),(5S,7R)-1-(3-fluorophenyl)-7-methyl-2-oxo-1,8-diazaspiro[4.5]dec-3-en-8-yl]methyl}-1H-indole-5-carbonitrile]: the IC50 was 10 to 100 µM.
Then `CC1CC2(C=CC(=O)N2c2cccc(F)c2)CCN1Cc1c[nH]c2ccc(OCc3ccccc3)cc12` (racemic) [Example 62, Racemic (5R,7S),(5S,7R)-8-{[5-(benzyloxy)-1H-indol-3-yl]methyl}-1-(3-fluorophenyl)-7-methyl-1,8-diazaspiro[4.5]dec-3-en-2-one], with 10 to 100 µM; and `CC1CC2(C=CC(=O)N2c2cccc(F)c2)CCN1Cc1c[nH]c2cc(F)ccc12` (racemic) [Example 63, Racemic (5R,7S),(5S,7R)-8-[(6-fluoro-1H-indol-3-yl)methyl]-1-(3-fluorophenyl)-7-methyl-1,8-diazaspiro[4.5]dec-3-en-2-one], with 10 to 100 µM; and `CC1CC2(C=CC(=O)N2c2cccc(F)c2)CCN1Cc1cccc(-n2cccn2)c1` (racemic) [Example 64, Racemic (5R,7S),(5S,7R)-1-(3-fluorophenyl)-7-methyl-8-[3-(1H-pyrazol-1-yl)benzyl]-1,8-diazaspiro[4.5]dec-3-en-2-one], with 10 to 100 µM.
Then `CC1CC2(C=CC(=O)N2c2cccc(F)c2)CCN1Cc1n[nH]c2ccc(Cl)cc12` (racemic) [Example 65, Racemic (5R,7S),(5S,7R)-8-[(5-chloro-1H-indazol-3-yl)methyl]-1-(3-fluorophenyl)-7-methyl-1,8-diazaspiro[4.5]dec-3-en-2-one], with 10 to 100 µM; and `Cc1ccc2c(CN3CCC4(C=CC(=O)N4c4cccc(F)c4)CC3C)c[nH]c2c1` (racemic) [Example 66, Racemic (5R,7S),(5S,7R)-1-(3-fluorophenyl)-7-methyl-8-[(6-methyl-1H-indol-3-yl)methyl]-1,8-diazaspiro[4.5]dec-3-en-2-one], with 10 to 100 µM.
`CC1CC2(C=CC(=O)N2c2cccc(F)c2)CCN1Cc1c[nH]c2cc(C(F)(F)F)ccc12` (racemic) [Example 67, Racemic (5R,7S),(5S,7R)-1-(3-fluorophenyl)-7-methyl-8-{[6-(trifluoromethyl)-1H-indol-3-yl]methyl}-1,8-diazaspiro [4.5]dec-3-en-2-one] gave an IC50 of 10 to 100 µM.
For `CC1CC2(C=CC(=O)N2c2cccc(F)c2)CCN1Cc1cccc(OCc2nc(C3CC3)no2)c1` (racemic) [Example 68, Racemic (5R,7S),(5S,7R)-8-{3-[(3-cyclopropyl-1,2,4-oxadiazol-5-yl)methoxy]benzyl}-1-(3-fluorophenyl)-7-methyl-1,8-diazaspiro[4.5]dec-3-en-2-one], the IC50 fell in the range of 10 to 100 µM.
Then `CC(=O)Nc1ccc(CN2CCC3(CCC(=O)N3c3cccc(F)c3)CC2C)cc1` (racemic) [Example 69, Racemic N-(4-{[(5R,7S),(5S,7R)-1-(3-fluorophenyl)-7-methyl-2-oxo-1,8-diazaspiro[4.5]dec-8-yl]methyl}phenyl)acetamide], with 10 to 100 µM.
